In patent publication US20030044399A1, “Method of treatment” (SmithKline Beecham Corporation, priority 1998, published 2003):
Where two headings read alike, the source gives them in different places.

Assays:
[1] = biological target: Cruzain (Trypanosoma cruzi, UniProt P25779); test: Cysteine protease inhibition, progress curve method, cruzain; format: biochemical; details: 4 uM Ac-Lys-Glu-Lys-Leu-Arg-AMC, 100 mM Na acetate pH 5.5, 5 mM cysteine
Procedure, shortened: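 Buffer was 100 mM sodium acetate pH 5.5 with 5 mM cysteine and 2% DMSO, at ambient temperature; reactions started with enzyme, and AMC formation was followed for 20–30 min. Substrates: Leishmania and Schistosoma, 10 uM Cbz-Phe-Arg-AMC; falcipain, 10 uM Cbz-Leu-Arg-AMC; cruzain, 4 uM Ac-Lys-Glu-Lys-Leu-Arg-AMC. Linear curves gave Ki,app; curved ones gave kobs/[I].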

[2] = biological target: Rhodazain (Trypanosoma brucei rhodesiense, UniProt Q95PM0); test: Cysteine protease inhibition, progress curve method, rhodazain; format: biochemical, Trypanosoma brucei rhodesiensi; details: 10 uM Cbz-Leu-Arg-AMC, 100 mM Na acetate pH 5.5, 5 mM cysteine
Protocol: Standard assay conditions for the determination of kinetic constants used 10 uM fluorogenic peptide substrate, Cbz-Phe-Arg-AMC for the cysteine proteases from Leishmania spp and Schistosoma Mansoni, Cbz-Leu-Arg-AMC for the cysteine proteases from Plasmodium falciparum and Trypanosoma brucei rhodesiensi, and Ac-Lys-Glu-Lys-Leu-Arg-AMC (4 uM final substrate concentration) for the cysteine protease from Trypoanosoma cruzi, and were determined in 100 mM Na acetate at pH 5.5 containing 5 mM cysteine. Stock substrate solutions were prepared at concentrations of […] in DMSO with 10 uM (4 uM for Ac-Lys-Glu-Lys-Leu-Arg-AMC) final substrate concentration in the assays. The final DMSO concentration was 2% and the final volume was 100 uL. All assays were conducted at ambient temperature. Product progress curves were generated over 20 to 30 minutes following formation of AMC product.
Potential inhibitors were evaluated using the progress curve method. Assays were carried out in the presence of variable concentrations of test compound. Reactions were initiated by addition of enzyme to buffered solutions of inhibitor and substrate. Data analysis was conducted according to one of two procedures depending on the appearance of the progress curves in the presence of inhibitors. For those compounds whose progress curves were linear, apparent inhibition constants (Ki,app) were calculated according to equation 1 (Brandt et al., Biochemitsry, 1989, 28, 140):
v=VmA/[Ka(1+I/Ki,app)+A] (1)
Where v is the velocity of the reaction with maximal velocity Vm, A is the concentration of substrate with Michaelis constant of Ka, and I is the concentration of inhibitor.
[AMC]=vsst+(v0−vss)[1−exp (−kobst)]/kobs (2)
Where [AMC] is the concentration of product formed over time t, v0 is the initial reaction velocity and vss is the final steady state rate. Values for kobs were then analyzed as a linear function of inhibitor concentration to generate an apparent second order rate constant (kobs/inhibitor concentration or kobs/[I]) describing the time-dependent inhibition. A complete discussion of this kinetic treatment has been fully described (Morrison et al., Adv. Enzymol. Relat. Areas Mol. Biol., 1988, 61, 201).
Exemplary inhibition data for the compounds used in the present method collected in accordance with the above-described procedure are listed in Table I.

Sequence of Rhodazain (Q95PM0 entry or part of it): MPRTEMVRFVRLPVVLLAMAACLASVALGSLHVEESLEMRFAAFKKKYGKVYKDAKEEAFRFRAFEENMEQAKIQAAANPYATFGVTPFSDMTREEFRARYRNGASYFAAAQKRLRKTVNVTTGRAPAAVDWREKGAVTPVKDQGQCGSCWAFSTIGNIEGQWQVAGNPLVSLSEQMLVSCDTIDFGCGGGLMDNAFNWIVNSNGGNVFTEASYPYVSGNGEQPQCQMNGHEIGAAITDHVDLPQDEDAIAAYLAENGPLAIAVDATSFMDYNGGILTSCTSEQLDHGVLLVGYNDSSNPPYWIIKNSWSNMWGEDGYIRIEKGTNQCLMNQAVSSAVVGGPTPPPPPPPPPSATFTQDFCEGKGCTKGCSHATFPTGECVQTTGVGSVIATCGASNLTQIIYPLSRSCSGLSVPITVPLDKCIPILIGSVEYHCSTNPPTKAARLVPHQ
Sequence of Cruzain (P25779 123-337): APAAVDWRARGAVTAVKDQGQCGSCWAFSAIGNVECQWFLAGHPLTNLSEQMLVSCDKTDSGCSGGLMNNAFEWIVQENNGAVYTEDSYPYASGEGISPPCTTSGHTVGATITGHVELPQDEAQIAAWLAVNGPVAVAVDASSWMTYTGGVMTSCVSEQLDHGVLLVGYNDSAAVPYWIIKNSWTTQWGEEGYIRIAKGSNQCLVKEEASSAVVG

| Ki ([1]; Cruzain Ki nM) [nM] | Compound | Ki ([1]; read-out: Cruzain Ki) [nM] | Ki ([2]; Rhodazain Ki (nM)) [nM] | Ki ([2]; read-out: Rhodazain Ki) [nM] |
| --- | --- | --- | --- | --- |
|  | Cc1cccnc1S(=O)(=O)N1CCC[C@@H](NC(=O)[C@@H](CC(C)C)NC(=O)c2cc3sccc3s2)C(=O)C1 [Example 160, Thieno [3.2-b]thiophene-2-carboxylic acid {(S)-3-methyl-1-[1-(3-methyl-pyridine-2-sulfonyl)-3-oxo-azepan-4-ylcarbamoyl]-butyl}amide] | 7.4 | 6.7 |  |
|  | Cc1c(C(=O)N[C@H](CC(C)C)C(=O)N[C@@H]2CCCN(S(=O)(=O)c3ccccn3)CC2=O)oc2ccccc12 (single isomer, unassigned) [Example 97] | 4 | 2.7 |  |
|  | Cc1c(C(=O)N[C@H](CC(C)C)C(=O)NC2CCCN(S(=O)(=O)c3cccc[n+]3[O-])CC2=O)oc2ccccc12 (stereo partly drawn) [Example 57, 3-Methyl-benzofuran-2-carboxylic acid {(S)-3-methyl-1-[3-oxo-1-(1-oxy-pyridine-2-sulfonyl)-azepan-4-ylcarbamoyl]-butyl}amide] | 10 | 5.4 |  |
|  | CC(C)C[C@H](NC(=O)c1cc2cc(O)ccc2o1)C(=O)N[C@H]1CCCN(S(=O)(=O)c2cn(C)cn2)CC1=O [Example 44, 5-Hydroxy-benzofuran-2-carboxylic acid {(S)-3-methyl-1-[1-(1-methyl-1H-imidazole-4-sulfonyl)-3-oxo-azepan-4-ylcarbamoyl]-butyl}amide] | 11 | 7.2 |  |
|  | Cc1ccc(C(=O)NC(CC(C)C)C(=O)N[C@@H]2CCCN(S(=O)(=O)c3cccc[n+]3[O-])CC2=O)s1 (stereo partly drawn) [Example 79, 5-Methyl-thiophene-2-carboxylic acid {(S)-3-methyl-1-[3-oxo-1-(1-oxy-1pyridine-2-sulfonyl)-azepan-4-ylcarbamoyl]-butyl}amide] | 16 | 8 |  |
|  | CC(C)C[C@@H](NC(=O)c1cc2cc(F)c(F)cc2o1)C(=O)N[C@@H]1CCCN(S(=O)(=O)c2ccccn2)CC1=O (stereo in doubt) [Example 149, 5,6-Difluoro-benzofuran-2-carboxylic acid {(S)-3-methyl-1-[1-(pyridine-2-sulfonyl)-3-oxo-azepan-4-ylcarbamoyl]-butyl}amide] | 9.1 | 6.3 |  |
|  | COc1cccc2oc(C(=O)N[C@@H](CC(C)C)C(=O)NC3CCCN(S(=O)(=O)c4cccc[n+]4[O-])CC3=O)c(C)c12 (stereo partly drawn) [Example 209, 4-Methoxy-3-methyl-benzofuran-2-carboxylic acid {(S)-3-methyl-1-[3-oxo-1-(1-oxy-pyridine-2-sulfonyl)-azepan-4-ylcarbamoyl]-butyl}-amide] | 8.9 |  | 4.1 |
| 2.1 | CC(C)C[C@H](NC(=O)c1cccc2ccccc12)C(=O)N[C@H]1CCCN(S(=O)(=O)c2ccccn2)CC1=O [Example 184, Naphthalene-1-carboxylic acid {(S)-3-methyl-1-[3-oxo-1-(pyridine-2-sulfonyl)-azepan-4-ylcarbamoyl]-butyl}-amide] |  | 1.8 |  |
|  | CC(C)C[C@H](NC(=O)c1cc2ccccc2o1)C(=O)N[C@H]1C[C@H](C)CN(S(=O)(=O)c2ccccn2)CC1=O (single isomer, unassigned) [Example 173] | 2 | 2.2 |  |
|  | Cc1c(C(=O)N[C@@H](CC(C)C)C(=O)N[C@H]2CCCN(S(=O)(=O)c3nccs3)CC2=O)oc2ccccc12 [Example 126, 3-Methylbenzofuran-2-carboxylic acid {(S)-3-methyl-1-[3-oxo-1-(thiazole-2-sulfonyl)-azepan-4-ylcarbamoyl]-butyl}amide] | 4.3 | 3.8 |  |
|  | CC(C)C[C@@H](NC(=O)c1nccc2ccccc12)C(=O)N[C@@H]1CCCN(S(=O)(=O)c2ccccn2)CC1=O (single isomer, unassigned) [Example 154] | 4.4 | 4.4 |  |
|  | Cc1ccc2oc(C(=O)N[C@@H](CC(C)C)C(=O)NC3CCCN(S(=O)(=O)c4cccc[n+]4[O-])CC3=O)c(C)c2c1 (stereo partly drawn) [Example 201, 3,5-Dimethyl-benzofuran-2-carboxylic acid {(S)-3-methyl-1-[3-oxo-1-(1-oxy-pyridine-2-sulfonyl)-azepan-4-ylcarbamoyl]-butyl}-amide] | 10 |  | 7.6 |
|  | COc1cccc2cc(C(=O)N[C@@H](CC(C)C)C(=O)N[C@H]3CCCN(S(=O)(=O)c4nccs4)CC3=O)oc12 [Example 125] | 4 | 4.1 |  |
|  | CC(C)C[C@@H](NC(=O)c1cc2sccc2s1)C(=O)N[C@@H]1CCCN(S(=O)(=O)c2ccccn2)CC1=O (single isomer, unassigned) [Example 98] | 5.2 | 3.9 |  |
|  | Cc1c(C(=O)N[C@@H](CC(C)C)C(=O)NC2CCCN(S(=O)(=O)c3ccccn3)CC2=O)oc2ccccc12 (stereo partly drawn) [Example 70, 3-Methyl-benzofuran-2-carboxylic acid {(S)-3-methyl-1-[3-oxo-1-(pyridine-2-sulfonyl)-azepan-4-ylcarbamoyl]-butyl}amide] | 6.6 | 5.5 |  |
|  | CC(C)C[C@H](NC(=O)c1cc2ccccc2o1)C(=O)N[C@H]1CCCN(S(=O)(=O)c2nccs2)CC1=O [Example 130, Benzofuran-2-carboxylic acid {(S)-3-methyl-1-[3-oxo-1-(thiazole-2-sulfonyl)-azepan-4-ylcarbamoyl]-butyl}amide] | 2.5 | 2.6 |  |
|  | Cc1c(C(=O)N[C@H](CC(C)C)C(=O)N[C@@H]2CCCN(S(=O)(=O)c3cccc[n+]3[O-])CC2=O)oc2ccccc12 (single isomer, unassigned) [Example 99] | 7.8 | 5.1 |  |
|  | Cc1cccnc1S(=O)(=O)N1CCC[C@@H](NC(=O)[C@@H](CC(C)C)NC(=O)c2oc3ccccc3c2C)C(=O)C1 (stereo in doubt) [Example 161, 3-Methyl-benzofuran-2-carboxylic acid {(S)-3-methyl-1-[1-(3-methyl-pyridine-2-sulfonyl)-3-oxo-azepan-4-ylcarbamoyl]-butyl}amide] | 7.8 | 6.4 |  |
|  | CC(C)C[C@@H](NC(=O)c1ccc(Br)o1)C(=O)N[C@@H]1CCCN(S(=O)(=O)c2cccc[n+]2[O-])CC1=O [Example 47] | 13 | 2.7 |  |
|  | CC(C)CC(NC(=O)c1cc2ccccc2n1C)C(=O)NC1CCCN(S(=O)(=O)c2cccs2)CC1=O [Example 148, 1-Methyl-1-H-indole-2-carboxylic acid-{(S)-3-methyl-1-[3-oxo-1-(thiophene-2-sulfonyl)-azepan-4-ylcarbamoyl]-butyl}-amide] | 8.2 | 23 |  |
|  | Cc1c(C(=O)N[C@@H](CC(C)C)C(=O)N[C@H]2CCCN(C(=O)Nc3ccccc3F)CC2=O)oc2ccccc12 [Example 216, 3-Methyl-benzofuran-2-carboxylic acid {(S)-1-[1-(2-fluoro-phenylcarbamoyl)-3-oxo-azepan-4-ylcarbamoyl]-3-methyl-butyl}-amide] | 6.9 | 3.4 |  |
|  | CC(C)C[C@@H](NC(=O)c1cc2cc(F)ccc2o1)C(=O)N[C@H]1CCCN(S(=O)(=O)c2cccc[n+]2[O-])CC1=O [Example 191, 5-Fluoro-benzofuran-2-carboxylic acid {(S)-3-methyl-1-[3-oxo-1-(1-ox-pyridine-2-sulfonyl)-azepan-4-ylcarbamoyl]-butyl}-amide] | 12 | 8.3 |  |
|  | COc1cccc2oc(C(=O)N[C@@H](CC(C)C)C(=O)NC3CCCN(S(=O)(=O)c4cccc[n+]4[O-])CC3=O)c(C)c12 (stereo partly drawn) [Example 208, 4-Methoxy-3-methyl-benzofuran-2-carboxylic acid {(S)-3-methyl-1-[3-oxo-1-(1-oxy-pyridine-2-sulfonyl)-azepan-4-ylcarbamoyl]-butyl}-amide] | 10 |  | 4.2 |
|  | CC(C)C[C@@H](NC(=O)c1cc2ccccc2o1)C(=O)N[C@@H]1CCCN(S(=O)(=O)c2ccccn2)CC1=O [Example 16] | 6.1 | 5.5 |  |
|  | CC(C)C[C@@H](NC(=O)c1ccc2ccccc2n1)C(=O)N[C@@H]1CCCN(S(=O)(=O)c2ccccn2)CC1=O (single isomer, unassigned) [Example 151] | 7.1 | 6.1 |  |
